{"source": "paper PMC5218480", "about": "(PLoS ONE, 2017)", "test_system": "MV-4-11 cells", "experiment": "Gene expression microarray analysis (Affymetrix PrimeView) and GSEA", "type": "cell-based, human", "parameters": "RFU PODN (11730768_x_at) / Fold change /veh PODN (11730768_x_at) / RFU LINC00158 (11744669_a_at) / Fold change /veh LINC00158 (11744669_a_at) / RFU DUSP10 (11751237_a_at) / Fold change /veh DUSP10 (11751237_a_at) / RFU ID3 (11757404_x_at) / Fold change /veh ID3 (11757404_x_at) / RFU PLEKHG5 (11737974_s_at) / Fold change /veh PLEKHG5 (11737974_s_at) / RFU LRRC4B (11730491_at) / Fold change /veh LRRC4B (11730491_at) / RFU GIMAP4 (11747438_a_at) / Fold change /veh GIMAP4 (11747438_a_at) / RFU KRT8 (11758183_x_at) / Fold change /veh KRT8 (11758183_x_at) / RFU CNN1 (11734310_a_at) / Fold change /veh CNN1 (11734310_a_at) / RFU VPS37D (11726825_at) / Fold change /veh VPS37D (11726825_at) / RFU C10orf10 (11716522_x_at) / Fold change /veh C10orf10 (11716522_x_at) / RFU KIR2DL2 /// KIR2DL4 /// KIR2DL5A /// KIR2DL5B /// KIR2DS1 /// KIR2DS2 /// KIR2DS3 /// KIR2DS4 /// KIR3DL3 /// KIR3DL3 /// KIR3DS1 (11738374_at) / Fold change /veh KIR2DL2 /// KIR2DL4 /// KIR2DL5A /// KIR2DL5B /// KIR2DS1 /// KIR2DS2 /// KIR2DS3 /// KIR2DS4 /// KIR3DL3 /// KIR3DL3 /// KIR3DS1 (11738374_at) / RFU C1QL1 (11718748_at) / Fold change /veh C1QL1 (11718748_at) / RFU TMPRSS4 (11747572_a_at) / Fold change /veh TMPRSS4 (11747572_a_at) / RFU HAMP (11756126_x_at) / Fold change /veh HAMP (11756126_x_at) / RFU RNFT2 (11725882_a_at) / Fold change /veh RNFT2 (11725882_a_at) / RFU NR4A2 (11747474_a_at) / Fold change /veh NR4A2 (11747474_a_at) / RFU ABCC12 (11746883_a_at) / Fold change /veh ABCC12 (11746883_a_at) / RFU TMEM136 (11760407_x_at) / Fold change /veh TMEM136 (11760407_x_at) / RFU CLDN22 /// WWC2 (11732394_at) / Fold change /veh CLDN22 /// WWC2 (11732394_at) / RFU HLA-DPB1 (11760878_x_at) / Fold change /veh HLA-DPB1 (11760878_x_at) / RFU SPINT1 (11716480_a_at) / Fold change /veh SPINT1 (11716480_a_at) / RFU GAP43 (11754022_s_at) / Fold change /veh GAP43 (11754022_s_at) / RFU A4GNT (11735810_at) / Fold change /veh A4GNT (11735810_at) / RFU PRB3 (11715151_x_at) / Fold change /veh PRB3 (11715151_x_at) / RFU TUBB4B (11761932_at) / Fold change /veh TUBB4B (11761932_at) / RFU CAPN14 (11732068_a_at) / Fold change /veh CAPN14 (11732068_a_at) / RFU TMCC2 (11721928_a_at) / Fold change /veh TMCC2 (11721928_a_at) / RFU IRGQ (11745062_a_at) / Fold change /veh IRGQ (11745062_a_at) / RFU FAM174B (11720279_a_at) / Fold change /veh FAM174B (11720279_a_at) / RFU TMPRSS4 (11748680_a_at) / Fold change /veh TMPRSS4 (11748680_a_at) / RFU FAM212B (11763350_a_at) / Fold change /veh FAM212B (11763350_a_at) / RFU PLEKHG5 (11743358_a_at) / Fold change /veh PLEKHG5 (11743358_a_at) / RFU ZSCAN30 (11745921_a_at) / Fold change /veh ZSCAN30 (11745921_a_at) / RFU CMKLR1 (11741424_a_at) / Fold change /veh CMKLR1 (11741424_a_at) / RFU LOC101060620 /// MAPK8IP1 (11723275_at) / Fold change /veh LOC101060620 /// MAPK8IP1 (11723275_at) / RFU SPTSSB (11747773_x_at) / Fold change /veh SPTSSB (11747773_x_at) / RFU PRSS12 (11739890_at) / Fold change /veh PRSS12 (11739890_at) / RFU BIN1 (11741810_x_at) / Fold change /veh BIN1 (11741810_x_at) / RFU WNT11 (11732464_a_at) / Fold change /veh WNT11 (11732464_a_at) / RFU C10orf10 (11716521_a_at) / Fold change /veh C10orf10 (11716521_a_at) / RFU C5orf56 (11738089_at) / Fold change /veh C5orf56 (11738089_at) / RFU CYB561 (11721691_x_at) / Fold change /veh CYB561 (11721691_x_at) / RFU ANKRD19P (11752326_a_at) / Fold change /veh ANKRD19P (11752326_a_at) / RFU OR2T12 /// OR2T33 /// OR2T8 (11738714_s_at) / Fold change /veh OR2T12 /// OR2T33 /// OR2T8 (11738714_s_at) / RFU VCAN (11748164_a_at) / Fold change /veh VCAN (11748164_a_at) / RFU JSRP1 (11732532_at) / Fold change /veh JSRP1 (11732532_at) / RFU KRTAP10-11 (11738290_x_at) / Fold change /veh KRTAP10-11 (11738290_x_at) / RFU MYO3A (11730013_a_at) / Fold change /veh MYO3A (11730013_a_at) / RFU EBF3 (11725865_a_at) / Fold change /veh EBF3 (11725865_a_at) / RFU CAMK2N1 (11719241_x_at) / Fold change /veh CAMK2N1 (11719241_x_at) / RFU C5orf56 (11738088_a_at) / Fold change /veh C5orf56 (11738088_a_at) / RFU OLFML3 (11715873_a_at) / Fold change /veh OLFML3 (11715873_a_at) / RFU LOC100653217 /// NTM (11731650_a_at) / Fold change /veh LOC100653217 /// NTM (11731650_a_at) / RFU MAPK11 (11762145_a_at) / Fold change /veh MAPK11 (11762145_a_at) / RFU FIZ1 (11724087_x_at) / Fold change /veh FIZ1 (11724087_x_at) / RFU OASL (11726364_x_at) / Fold change /veh OASL (11726364_x_at) / RFU SOX15 (11748057_x_at) / Fold change /veh SOX15 (11748057_x_at) / RFU CD79A (11719716_a_at) / Fold change /veh CD79A (11719716_a_at) / RFU HIST1H1D (11736915_at) / Fold change /veh HIST1H1D (11736915_at) / RFU CASKIN2 (11723855_a_at) / Fold change /veh CASKIN2 (11723855_a_at) / RFU LOC730098 (11760151_x_at) / Fold change /veh LOC730098 (11760151_x_at) / RFU OR4N2 (11742367_at) / Fold change /veh OR4N2 (11742367_at) / RFU PRRT2 (11749266_a_at) / Fold change /veh PRRT2 (11749266_a_at) / RFU SNX32 (11753110_a_at) / Fold change /veh SNX32 (11753110_a_at) / RFU CDHR5 (11726645_a_at) / Fold change /veh CDHR5 (11726645_a_at) / RFU RCAN1 (11760418_a_at) / Fold change /veh RCAN1 (11760418_a_at) / RFU FAM167A (11723789_a_at) / Fold change /veh FAM167A (11723789_a_at) / RFU FAM26E (11764081_at) / Fold change /veh FAM26E (11764081_at) / RFU ISYNA1 (11749810_s_at) / Fold change /veh ISYNA1 (11749810_s_at) / RFU ACY1 (11761880_at) / Fold change /veh ACY1 (11761880_at) / RFU 11764098_at / Fold change /veh 11764098_at / RFU SAMD14 (11745864_x_at) / Fold change /veh SAMD14 (11745864_x_at) / RFU NPB (11741838_a_at) / Fold change /veh NPB (11741838_a_at) / RFU TMPRSS6 (11731388_a_at) / Fold change /veh TMPRSS6 (11731388_a_at) / RFU KRTAP10-2 (11738614_at) / Fold change /veh KRTAP10-2 (11738614_at) / RFU ARHGAP8 /// PRR5-ARHGAP8 (11727945_x_at) / Fold change /veh ARHGAP8 /// PRR5-ARHGAP8 (11727945_x_at) / RFU KRTAP5-7 /// NADSYN1 (11734609_at) / Fold change /veh KRTAP5-7 /// NADSYN1 (11734609_at) / RFU RASL12 (11751679_a_at) / Fold change /veh RASL12 (11751679_a_at) / RFU CDKN2B (11736163_a_at) / Fold change /veh CDKN2B (11736163_a_at) / RFU PRF1 (11729649_at) / Fold change /veh PRF1 (11729649_at) / RFU, ZNF638 /// ZNF638-IT1 / Fold change vs veh, ZNF638 /// ZNF638-IT1 / RFU, PANK3 / Fold change vs veh, PANK3 / RFU, SH3YL1 / Fold change vs veh, SH3YL1 / RFU, ZEB2 / Fold change vs veh, ZEB2 / RFU, NRIP1 / Fold change vs veh, NRIP1 / RFU, PTTG1IP / Fold change vs veh, PTTG1IP / RFU, CAPN2 / Fold change vs veh, CAPN2 / RFU, MED14 / Fold change vs veh, MED14 / RFU, SNORA58 / Fold change vs veh, SNORA58 / RFU, C1orf63 / Fold change vs veh, C1orf63 / RFU, LRRFIP1 / Fold change vs veh, LRRFIP1 / RFU, NDUFAF7 / Fold change vs veh, NDUFAF7 / RFU, SLC12A2 / Fold change vs veh, SLC12A2 / RFU, IBTK / Fold change vs veh, IBTK / RFU, ESF1 / Fold change vs veh, ESF1 / Fold change vs veh, TMEM50B / RFU, TAOK1 / Fold change vs veh, TAOK1 / RFU, ACBD3 / Fold change vs veh, ACBD3 / RFU, TMA16 / Fold change vs veh, TMA16 / RFU, RWDD3 / Fold change vs veh, RWDD3 / RFU, BCAT1 / Fold change vs veh, BCAT1 / RFU, EDEM3 / Fold change vs veh, EDEM3 / RFU, TMEM33 / Fold change vs veh, TMEM33 / RFU, WDR75 / Fold change vs veh, WDR75 / RFU, AHCTF1 / Fold change vs veh, AHCTF1 / RFU, TFRC / Fold change vs veh, TFRC / RFU, ZDHHC17 / Fold change vs veh, ZDHHC17 / RFU, NOM1 / Fold change vs veh, NOM1 / RFU, ARL8B / Fold change vs veh, ARL8B / RFU, ZBTB11 / Fold change vs veh, ZBTB11 / RFU, TAMM41 / Fold change vs veh, TAMM41 / RFU, KIAA1704 /// LOC100996395 / Fold change vs veh, KIAA1704 /// LOC100996395 / RFU, ING1 / Fold change vs veh, ING1 / RFU, TRMT61B / Fold change vs veh, TRMT61B / RFU, FUBP3 / Fold change vs veh, FUBP3 / RFU, TP53 / Fold change vs veh, TP53 / RFU, TNKS2 / Fold change vs veh, TNKS2 / RFU, ZFP14 / Fold change vs veh, ZFP14 / RFU, ACTR2 / Fold change vs veh, ACTR2 / RFU, PPP3R1 / Fold change vs veh, PPP3R1 / RFU, PIK3R1 / Fold change vs veh, PIK3R1 / RFU, HNRNPA1 / Fold change vs veh, HNRNPA1 / RFU, RNF170 / Fold change vs veh, RNF170 / RFU, ZNF28 / Fold change vs veh, ZNF28 / RFU, RNGTT / Fold change vs veh, RNGTT / RFU, OGT / Fold change vs veh, OGT / RFU, BRD1 / Fold change vs veh, BRD1 / RFU, MARS / Fold change vs veh, MARS / RFU, ZNF655 / Fold change vs veh, ZNF655 / RFU, FAHD1 / Fold change vs veh, FAHD1 / RFU, BDP1 / Fold change vs veh, BDP1 / RFU, LRRCC1 / Fold change vs veh, LRRCC1 / RFU, ARID1A / Fold change vs veh, ARID1A / RFU, ZNF146 / Fold change vs veh, ZNF146 / RFU, ZNF330 / Fold change vs veh, ZNF330 / RFU, GPN3 / Fold change vs veh, GPN3 / RFU, C9orf123 / Fold change vs veh, C9orf123 / RFU, N4BP2L2 / Fold change vs veh, N4BP2L2 / RFU, ARFIP1 / Fold change vs veh, ARFIP1 / RFU, FAM179B / Fold change vs veh, FAM179B / RFU, BCL10 / Fold change vs veh, BCL10 / RFU, UHRF1BP1L / Fold change vs veh, UHRF1BP1L / RFU, BET1 / Fold change vs veh, BET1 / RFU, CNOT2 / Fold change vs veh, CNOT2 / RFU, ZNF268 / Fold change vs veh, ZNF268 / Fold change vs veh, ZNF507 / RFU, DGCR2 / Fold change vs veh, DGCR2 / RFU, WDSUB1 / Fold change vs veh, WDSUB1 / Fold change vs veh, HSP90B1 /// MIR3652 / RFU, ADSS / Fold change vs veh, ADSS / RFU, GK / Fold change vs veh, GK / RFU, ZNF148 / Fold change vs veh, ZNF148 / RFU, TAF9 / Fold change vs veh, TAF9 / RFU, SLC1A5 / Fold change vs veh, SLC1A5 / RFU, SLMO2 / Fold change vs veh, SLMO2 / RFU, ABCC4 / Fold change vs veh, ABCC4 / RFU, LOC101060439 /// RAP1B / Fold change vs veh, LOC101060439 /// RAP1B / RFU, RFX7 / Fold change vs veh, RFX7 / RFU, GTPBP10 / Fold change vs veh, GTPBP10 / RFU, CNEP1R1 / Fold change vs veh, CNEP1R1 / RFU, BIVM-ERCC5 /// ERCC5 / Fold change vs veh, BIVM-ERCC5 /// ERCC5 / RFU, ILF3 / Fold change vs veh, ILF3 / RFU 11762660_at / Fold change /veh 11762660_at / RFU VCAN (11757783_s_at) / Fold change /veh VCAN (11757783_s_at) / RFU DDX43 (11728927_at) / Fold change /veh DDX43 (11728927_at) / RFU KRT8 (11758188_x_at) / Fold change /veh KRT8 (11758188_x_at) / RFU NKD1 (11759106_at) / Fold change /veh NKD1 (11759106_at) / RFU SRD5A1 (11742802_a_at) / Fold change /veh SRD5A1 (11742802_a_at) / RFU TPSAB1 /// TPSB2 (11721975_s_at) / Fold change /veh TPSAB1 /// TPSB2 (11721975_s_at) / RFU GSTM3 (11746129_a_at) / Fold change /veh GSTM3 (11746129_a_at) / RFU IL23R (11737362_x_at) / Fold change /veh IL23R (11737362_x_at) / RFU TMEM51 (11727254_a_at) / Fold change /veh TMEM51 (11727254_a_at) / RFU PIWIL2 (11732686_x_at) / Fold change /veh PIWIL2 (11732686_x_at) / RFU ORM1 (11744905_x_at) / Fold change /veh ORM1 (11744905_x_at) / RFU CCDC152 (11743942_at) / Fold change /veh CCDC152 (11743942_at) / RFU ECM1 (11717891_a_at) / Fold change /veh ECM1 (11717891_a_at) / RFU IL23R (11748794_a_at) / Fold change /veh IL23R (11748794_a_at) / RFU TNFAIP8L3 (11732012_x_at) / Fold change /veh TNFAIP8L3 (11732012_x_at) / RFU MBOAT4 (11741988_at) / Fold change /veh MBOAT4 (11741988_at) / RFU 11764193_at / Fold change /veh 11764193_at / RFU TMEM53 (11763286_at) / Fold change /veh TMEM53 (11763286_at) / RFU MAGEB2 (11727129_at) / Fold change /veh MAGEB2 (11727129_at) / RFU TMEM200A (11744735_a_at) / Fold change /veh TMEM200A (11744735_a_at) / RFU CCDC152 (11751479_a_at) / Fold change /veh CCDC152 (11751479_a_at) / RFU FAM211A (11726209_a_at) / Fold change /veh FAM211A (11726209_a_at) / RFU RGS16 (11746705_a_at) / Fold change /veh RGS16 (11746705_a_at) / RFU VCAN (11755009_s_at) / Fold change /veh VCAN (11755009_s_at) / RFU RHOB (11743442_s_at) / Fold change /veh RHOB (11743442_s_at) / RFU RGS16 (11720943_a_at) / Fold change /veh RGS16 (11720943_a_at) / RFU RGS16 (11720944_at) / Fold change /veh RGS16 (11720944_at) / RFU, VPS4B / Fold change vs veh, VPS4B / RFU, CREB1 / Fold change vs veh, CREB1 / RFU, DNAJC13 / Fold change vs veh, DNAJC13 / RFU, GNAQ / Fold change vs veh, GNAQ / RFU, CDK5R1 / Fold change vs veh, CDK5R1 / RFU, ZRANB3 / Fold change vs veh, ZRANB3 / RFU, CUL4A / Fold change vs veh, CUL4A / RFU, CCNY / Fold change vs veh, CCNY / RFU, UFL1 / Fold change vs veh, UFL1 / RFU, COG3 / Fold change vs veh, COG3 / RFU, DIAPH2 / Fold change vs veh, DIAPH2 / RFU, SKA2 / Fold change vs veh, SKA2 / RFU, AFF3 / Fold change vs veh, AFF3 / RFU, LMF1 / Fold change vs veh, LMF1 / RFU, IPO11 / Fold change vs veh, IPO11 / RFU, DFFB / Fold change vs veh, DFFB / RFU, FOXP1 / Fold change vs veh, FOXP1 / RFU, CARD8 / Fold change vs veh, CARD8 / RFU, STRN3 / Fold change vs veh, STRN3 / RFU, ADK / Fold change vs veh, ADK / RFU, RASSF2 / Fold change vs veh, RASSF2 / RFU, WIPF1 / Fold change vs veh, WIPF1 / RFU, LARP1B / Fold change vs veh, LARP1B / RFU, RASA1 / Fold change vs veh, RASA1 / RFU, RB1 / Fold change vs veh, RB1 / RFU, PPFIA1 / Fold change vs veh, PPFIA1 / RFU, MAT2A / Fold change vs veh, MAT2A / RFU, CCT5 / Fold change vs veh, CCT5 / RFU, WDR92 / Fold change vs veh, WDR92 / RFU, CUX1 / Fold change vs veh, CUX1 / RFU, TTC7A / Fold change vs veh, TTC7A / RFU, TMEM135 / Fold change vs veh, TMEM135 / RFU, DEPTOR / Fold change vs veh, DEPTOR / RFU, CPM / Fold change vs veh, CPM / RFU, DNAJB6 / Fold change vs veh, DNAJB6 / RFU, CACNA2D3 / Fold change vs veh, CACNA2D3 / RFU, DTX4 / Fold change vs veh, DTX4 / RFU, TFCP2 / Fold change vs veh, TFCP2 / RFU, GMCL1 /// GMCL1P1 / Fold change vs veh, GMCL1 /// GMCL1P1 / RFU, AEBP2 / Fold change vs veh, AEBP2 / RFU, SNHG1 /// SNORD22 /// SNORD25 /// SNORD26 /// SNORD27 /// SNORD28 /// SNORD29 /// SNORD31 / Fold change vs veh, SNHG1 /// SNORD22 /// SNORD25 /// SNORD26 /// SNORD27 /// SNORD28 /// SNORD29 /// SNORD31 / Fold change (Aza/veh), C12orf56 (ProbeSet 11735607_a_at) / Fold change (ACY-1035/veh), C12orf56 (ProbeSet 11735607_a_at) / Fold change (Aza/veh), FGFR1OP (ProbeSet 11751329_s_at) / Fold change (ACY-1035/veh), FGFR1OP (ProbeSet 11751329_s_at) / Fold change (Aza/veh), VPS36 (ProbeSet 11739960_a_at) / Fold change (ACY-1035/veh), VPS36 (ProbeSet 11739960_a_at) / RFU SYPL1 (11715823_x_at) / Fold change /veh SYPL1 (11715823_x_at) / RFU IGFBP7 (11715501_s_at) / Fold change /veh IGFBP7 (11715501_s_at) / RFU REEP3 (11722064_at) / Fold change /veh REEP3 (11722064_at) / RFU IGLL1 (11728026_x_at) / Fold change /veh IGLL1 (11728026_x_at): dose or concentration left out as unconfirmed", "settings": "ProbeSet 11725901_x_at; LIST B", "data": [{"smiles": "Nc1ccc(-c2cccs2)cc1NC(=O)c1ccc2c(c1)cc(C1CC1)n2CCN1CCOCC1", "note": "[ACY-1035]", "values": [{"measurement": "RFU, RWDD3", "result": 19.72, "unit": "RFU"}]}]}
